Laboratory results: patent US20140303145A1, “PHARMACEUTICAL COMPOSITION COMPRISING A POORLY WATER-SOLUBLE ACTIVE INGREDIENT, A SURFACTANT AND A WATER-SOLUBLE POLYMER” (NOVARTIS AG, priority 2001, published 2014)

How the values were obtained:
Format in all cases: physicochemical
[1] = Dissolution behaviour of tablets (Paddle method USP XXIV, SIFmod); details: based on a 25 mg dosage; 1 litre SIFmod pH 6.8; tablet test
Description: (§1) The medium used for the dissolution behaviour test is 1 litre of a surfactant-free, modified medium according to “Intestinal Fluid, Simulated, TS” from USP XXIV (SIFmod). KH2PO4 is replaced by NaH2PO4. Pancreatin is not added (pH 6.8).
The dissolution test is carried out according to the “Paddle method” of USP XXIV at 37° C. and at a stirring rate of 50 rpm with a Sotax AT6 (Sotax, Basle, Switzerland). The tablets were added and the amounts of active ingredient released were analysed.
The average amounts of active ingredient released from each of 3 tablets of 25 mg PKC412 according to examples C4-C6 are given in Table 8 as a percentage of the theoretical content.

[2] = Water solubility of PKC412
Description: (water solubility: <0.1 mg/l), which is referred to hereinafter as PKC412.

[3] = Dissolution behaviour of capsules (Paddle method USP XXIV, SIFmod); details: based on a 25 mg dosage; 1 litre SIFmod pH 6.8; capsule test
Description: as §1
The dissolution test is carried out according to the “Paddle method” of USP XXIV at 37° C. and at a stirring rate of 50 rpm with a Sotax AT6 (Sotax, Basle, Switzerland). The capsules are placed in a teflon-coated sinker (ATN, Pfaffenheim, France), in order to allow them to remain on the bottom of the dissolution container.
The average amounts of active ingredient released from each of 3 capsules of 25 mg PKC412 according to examples C1 and C2 are given in Table 7 as a percentage of the theoretical content.

For `CO[C@@H]1[C@H](N(C)C(=O)c2ccccc2)C[C@H]2O[C@]1(C)n1c3ccccc3c3c4c(c5c6ccccc6n2c5c31)C(=O)NC4` [PKC412], the “comparable solubility of untreated PKC412” value [1] was < 0.4 % of the theoretical content, the solubility [2] was under 0.1 µg/mL and the “comparable solubility of untreated PKC412” value [3] was < 0.4 % of the theoretical content.
